Results taken from patent US8487108B2, “Piperidinyl carbamate intermediates for the synthesis of aspartic protease inhibitors” (Vitae Pharmaceuticals, Inc., priority 2005, dated 2013).

The compounds below were run against T1, trypsin-activated recombinant human renin (Homo sapiens, UniProt P00797) (assay: Renin fluorescence assay (internally quenched peptide substrate)). Conditions: compounds I*.
T1 sequence (P00797 67-406): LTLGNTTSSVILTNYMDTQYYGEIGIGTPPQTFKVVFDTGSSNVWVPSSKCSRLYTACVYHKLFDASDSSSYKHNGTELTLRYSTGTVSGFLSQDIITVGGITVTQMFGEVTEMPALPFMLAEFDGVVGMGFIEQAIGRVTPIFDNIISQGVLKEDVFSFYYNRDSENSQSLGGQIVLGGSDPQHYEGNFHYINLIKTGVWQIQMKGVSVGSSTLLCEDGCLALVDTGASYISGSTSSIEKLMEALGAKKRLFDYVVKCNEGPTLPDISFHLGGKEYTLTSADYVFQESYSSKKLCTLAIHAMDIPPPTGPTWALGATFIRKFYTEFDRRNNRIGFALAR
Type: biochemical
Outline: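 Compounds (1 nM–10 μM final, DMSO) were mixed with internally quenched angiotensinogen-sequence substrate in pH 7.0 BES/NaCl/BSA buffer, then 0.2-2 nM trypsin-activated human renin added. Rate from the linear fluorescence increase (340 nm excitation, 495 nm emission) over 60-360 min at rt, compared with uninhibited control.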

IC50 [µM]	Compound
< 0.01	CNC[C@H](C[C@@H]1CCCOCC1)NC(=O)N1CCC[C@@H]([C@@H](OCCNC(=O)OC)c2cccc(Cl)c2)C1 [I*-99a, methyl 2-((R)-(3-chlorophenyl)((R)-1-((S)-1-(methylamino)-3-((S)-oxepan-4-yl)propan-2-ylcarbamoyl)piperidin-3-yl)methoxy)ethylcarbamate]
< 0.01	CNC[C@H](C[C@H]1CCCCOC1)NC(=O)N1CCC[C@@H]([C@@H](OCCNC(=O)OC)c2cc(F)cc(F)c2)C1 [I*-113a, methyl 2-((R)-(3,5-difluorophenyl)((R)-1-((S)-1-(methylamino)-3-((R)-oxepan-3-yl)propan-2-ylcarbamoyl)piperidin-3-yl)methoxy)ethylcarbamate]
< 0.02	CNC[C@H](CC1CCOCC1)NC(=O)N1CCC[C@@H]([C@@](C)(OCCNC(=O)OC)c2cccc(Cl)c2)C1 [I*-103a, methyl 2-((R)-1-(3-chlorophenyl)-1-((R)-1-((S)-1-(methylamino)-3-(tetrahydro-2H-pyran-4-yl)propan-2-ylcarbamoyl)piperidin-3-yl)ethoxy)ethylcarbamate]
< 0.01	CNC[C@H](CC1CCCC1)NC(=O)N1CCC[C@@H]([C@@H](OCCNC(=O)OC)c2cccc(F)c2)C1 [I*-5a, methyl 2-((R)—((R)-1-((S)-1-cyclopentyl-3-(methylamino)propan-2-ylcarbamoyl)piperidin-3-yl)(3-fluorophenyl)methoxy)ethylcarbamate]
> 0.05	CNC[C@H](CN1CCCCC1=O)NC(=O)N1CCC[C@@H]([C@@H](OCCNC(=O)OC)c2cccc(F)c2)C1 [I*-46a, methyl 2-((R)-(3-fluorophenyl)((R)-1-((R)-1-(methylamino)-3-(2-oxopiperidin-1-yl)propan-2-ylcarbamoyl)piperidin-3-yl)methoxy)ethylcarbamate]
< 0.001	CNC[C@H](CC1(C)CCCCC1)NC(=O)N1CCC[C@@H]([C@@H](OCCNC(=O)OC)c2cccc(Cl)c2)C1 [I*-90a, methyl 2-((R)-(3-chlorophenyl)((R)-1-((S)-1-(methylamino)-3-(1-methylcyclohexyl)propan-2-ylcarbamoyl)piperidin-3-yl)methoxy)ethylcarbamate]
< 0.05	CNC[C@H](CC1CCOCC1)NC(=O)N1CCC[C@@H]([C@@H](OCCNC(=O)OC)c2ccccc2)C1 [I*-3a, methyl 2-((R)—((R)-1-((S)-4-(methylamino)-3-(tetrahydro-2H-pyran-4-yl)propan-2-ylcarbamoyl)piperidin-3-yl)(phenyl)methoxy)ethylcarbamate]
> 0.05	CNC[C@H](CC1CCCCC1)NC(=O)N1CCC[C@@H]([C@H](OCCNC(=O)OC)c2nc(C)cs2)C1 [I*-33a, methyl 2-((S)-((R)-1-((S)-1-cyclohexyl-3-(methylamino)propan-2-ylcarbamoyl)piperidin-3-yl)(4-methylthiazol-2-yl)methoxy)ethylcarbamate]
< 0.02	CNC[C@H](CC1CCCCC1)NC(=O)N1CCC[C@@H]([C@@H](OCCNC(=O)OC)c2nccs2)C1 [I*-13a, methyl 2-((R)-((R)-1-((S)-1-cyclohexyl-3-(methylamino)propan-2-ylcarbamoyl)piperidin-3-yl)(thiazol-2-yl)methoxy)ethylcarbamate]
< 0.001	CNC[C@H](CC1CCCC1)NC(=O)N1CCC[C@@H]([C@@H](OCCNC(=O)OC)c2cc(Cl)ccc2C)C1 [I*-60a, methyl 2-((R)-(5-chloro-2-methylphenyl)((R)-1-((S)-1-cyclopentyl-3-(methylamino)propan-2-ylcarbamoyl)piperidin-3-yl)methoxy)ethylcarbamate]

Compound	IC50 [µM]
CNC[C@H](CC1CCCCC1)NC(=O)N1CCC[C@@H]([C@@H](OCCCC(=O)NC)c2cccc(Cl)c2)C1 [I*-45a, (R)-3-((R)-(3-chlorophenyl)(4-(methylamino)-4-oxobutoxy)methyl)-N—((S)-1-cyclohexyl-3-(methylamino)propan-2-yl)piperidine-1-carboxamide]	< 0.05
